Measured values reported in patent publication US9200003B2, “Crystalline forms of 1-(5′-(5-(3,5-dichloro-4-fluorophenyl)-5-(trifluoro-methyl)-4,5-dihydroisoxazol-3-yl)-3′H-spiro[azetidine-3,1′-isobenzofuran]-1-yl)-2-(methylsulfonyl) ethanone” (Zoetis Services LLC, priority 2012, dated 2015).
Values after ≈ are worked out from the molar mass of the structure shown. Like-named read-outs stand apart in the source and are kept apart here.

Assay: Solubility of the solid-state forms in organic solvents
Type: physicochemical
Details: for solubility: organic solvent or mixture

Compound	solubility (methyl t-butyl ether, read-out: solubility in methyl t-butyl ether) [mg/mL]	solubility (acetone, room temperature (approximately 22° C.), read-out: solubility in acetone) [mg/mL]	solubility in acetone (acetone, room temperature (approximately 22° C.))	solubility in methyl t-butyl ether (methyl t-butyl ether) [mg/mL]
CS(=O)(=O)CC(=O)N1CC2(C1)OCc1cc(C3=NO[C@@](c4cc(Cl)c(F)c(Cl)c4)(C(F)(F)F)C3)ccc12 [Form A, (S)-1-(5′-(5-(3,5-dichloro-4-fluorophenyl)-5-(trifluoromethyl)-4,5-dihydroisoxazol-3-yl)-3′H-spiro[azetidine-3,1′-isobenzofuran]-1-yl)-2-(methylsulfonyl)ethanone]	11 (≈ 18.9 mM)	> 300	–	–
CS(=O)(=O)CC(=O)N1CC2(C1)OCc1cc(C3=NOC(c4cc(Cl)c(F)c(Cl)c4)(C(F)(F)F)C3)ccc12 (racemic) [crystal racemate, (S/R)-1-(5′-(5-(3,5-dichloro-4-fluorophenyl)-5-(trifluoromethyl)-4,5-dihydroisoxazol-3-yl)-3′H-spiro[azetidine-3,1′-isobenzofuran]-1-yl)-2-(methylsulfonyl)ethanone]	–	–	less than 10 mg/mL	< 1
